{
  "source": "patent US20050037939A1",
  "about": "“Bottlewash additive” (Scimed Life Systems, Inc., priority 2002, published 2005)",
  "system": "mold on REF-PET bottles",
  "test": "Mold Remove Ability Test",
  "conditions": "alkaline bottlewashing environment; conditions not given",
  "method": "1. Mold Remove Ability Test A) Compositions are prepared according to the following general formula: [table] B) Select field returned bottles with heavy mold (black). Select 4 bottles per testing sequence. C) Cut the mold samples from REF-PET bottles using a utility knife. D) Label PET/mold pieces to keep track of the source bottle and the solution in which they are tested. E) Prepare solutions using 2.8% NaOH and 1% of the bottlewashing additive unless otherwise specified. F) Preheat the solutions to 55° C. G) Immerse PET/mold samples in respective bottlewashing compositions and soaked for 15 minutes with stirring at 400 rpm. H) If the mold is removed during testing note the time of removal. I) Remove the samples from solution. If the mold was not removed, rinse the sample in tap water for 10 seconds to see if mold can be removed at this point. J) Grade the samples by a % of mold removed and average the 4 tests as well as the time required for removal (Time Removal Grade). Time Grade is defined as follows: [table] Other Grades may be in between or lower depending on total mold removal",
  "data": [
    {"substance": "C6 alkyl diphenylene oxide disulfonate", "values": [
      {"measurement": "cleaning / mold removal by the surfactant (general statement)", "value": "superior cleaning/mold removal characteristics"}
    ]}
  ]
}
